Assay: Evaluation of moisture-heat resistance: turbidity (crystal precipitation) in the transparent resin film
Format: physicochemical
Conditions: amount of 3.5 parts by mass or more
Description: (Evaluation of Moisture-Heat Resistance)
The transparent resin films A-1 to A-14 and B-1 to B-3 were aged for 20 days under moisture heat conditions of a temperature of 85° C. and a humidity of 85%, and the presence or absence of turbidity (crystal precipitation) in the transparent resin film was evaluated according to the following standards.
(Evaluation Standards for Turbidity)
A: Almost no change in appearance such as turbidity due to crystal precipitation is observed.

| crystal precipitation | Structure (SMILES) |
| --- | --- |
| caused crystal precipitation | CCCCC(CC)COC(=O)/C(C#N)=C\C=C1/CCCN1C (centres unmarked) [UV-5] |
| caused crystal precipitation | CCCCCCCCCOC(=O)/C(C#N)=C/C=C/N(CC)CC [UV-4] |
